Data on six molecules can be found in patent US7238694B2, “Rifamycin imino derivatives effective against drug-resistant microbes” (Cumbre Pharmaceuticals, Inc., priority 2004, dated 2007).

Values after ≈ are worked out from the molar mass of the structure shown.

Assay type in all cases: cell-based
Test [1] relates to Staphylococcus aureus ATCC29213. The experiment in a line: MIC, microbroth dilution (NCCLS). To be noted: rifS strain, Cation-Adjusted Mueller-Hinton Broth, 37° C., read-out: MIC. In general terms: In broth dilution the organism is exposed to a series of concentrations in liquid medium.
Test [2] has as its system Staphylococcus aureus ATCC29213 rpoB^H418Y. The experiment in a line: microbe, parasite or virus in culture. Conditions: Staphylococcus aureus, ATCC29213; rifR strain; Cation-Adjusted Mueller-Hinton Broth, 37° C.; read-out: MIC.
Test [3] concerns Staphylococcus aureus MT1222 gyrA^A116E grlB^S80F. Put plainly: microbe, parasite or virus in culture. Conditions: cipR strain, Cation-Adjusted Mueller-Hinton Broth, 37° C., read-out: MIC.
Test [4] concerns Staphylococcus epidermidis ATCC12228. Put plainly: MIC, microbroth dilution (NCCLS). Conditions: rifS strain, Cation-Adjusted Mueller-Hinton Broth, 37° C., read-out: MIC.
Test [5] relates to Streptococcus pneumoniae ATCC6303. Put plainly: MIC, microbroth dilution (NCCLS). Conditions: rifS strain, THY Broth with 1 mg/mL catalase, 5% CO2, 37° C., read-out: MIC.
The test system of test [6] is Streptococcus pyogenes ATCC19615. The experiment in a line: MIC, microbroth dilution (NCCLS). To be noted: rifS strain, THY Broth, 37° C., read-out: MIC.
Test [7] concerns Haemophilus influenzae ATCC10211. Put plainly: MIC, microbroth dilution (NCCLS). To be noted: rifS strain, BHI Broth with NAD and hematin, 37° C., read-out: MIC.

Consider `COc1c(N2CCN(/N=C/c3c4c(O)c5c(O)c(C)c6c(c5c3O)C(=O)[C@@](C)(O/C=C/[C@H](OC)[C@@H](C)[C@@H](OC(C)=O)[C@H](C)[C@H](O)[C@H](C)[C@@H](O)[C@@H](C)/C=C/C=C(/C)C(=O)N4)O6)C(C)C2)c(F)cc2c(=O)c(C(=O)O)cn(C3CC3)c12` (mixture of isomers) [Example 7, (R/S)-3-[4-(3-Carboxy-1-cyclopropyl-6-fluoro-8-methoxy-4-oxo-1,4-dihydroquinolin-7-yl)-2-methyl-piperazin-1-yl-aminomethylenyl]rifamycin SV], for which the MIC in test [1] fell in the range of 0.008 to 1 mg/L (≈ 0.00728 to 0.911 µM); in test [2] it was 0.06 to 16 mg/L (≈ 0.0546 to 14.6 µM); in test [3], 0.008 to 0.125 mg/L (≈ 0.00728 to 0.114 µM); in test [4], 0.008 to 0.1 mg/L (≈ 0.00728 to 0.0911 µM); in test [5], 0.008 to 0.06 mg/L (≈ 0.00728 to 0.0546 µM); in test [6], 0.008 to 0.03 mg/L (≈ 0.00728 to 0.0273 µM). The MIC in test [7] lay in the range of 0.125 to 4 mg/L (≈ 0.114 to 3.64 µM).

For the molecule `COc1c(N2CCN(/N=C/c3c4c(O)c5c(O)c(C)c6c(c5c3O)C(=O)[C@@](C)(O/C=C/[C@H](OC)[C@@H](C)[C@@H](OC(C)=O)[C@H](C)[C@H](O)[C@H](C)[C@@H](O)[C@@H](C)/C=C/C=C(/C)C(=O)N4)O6)C(C(=O)O)C2)c(F)cc2c(=O)c(C(=O)O)cn(C3CC3)c12` (mixture of isomers) [Example 23, (R/S)-3-[4-(3-Carboxy-1-cyclopropyl-6-fluoro-8-methoxy-4-oxo-1,4-dihydroquinolin-7-yl)-3-carboxy-piperazin-1-yl-aminomethylenyl]-rifamycin SV], the MIC was in the range of 0.008 to 1 mg/L (≈ 0.00709 to 0.886 µM) in test [1]; 0.06 to 16 mg/L (≈ 0.0532 to 14.2 µM) in test [2]; 0.008 to 0.125 mg/L (≈ 0.00709 to 0.111 µM) in test [3]; 0.008 to 0.1 mg/L (≈ 0.00709 to 0.0886 µM) in test [4]; 0.008 to 0.06 mg/L (≈ 0.00709 to 0.0532 µM) in test [5]; 0.008 to 0.03 mg/L (≈ 0.00709 to 0.0266 µM) in test [6]. Further, the MIC in test [7] lay within 0.125 to 4 mg/L (≈ 0.111 to 3.55 µM).

Turning to `COc1c(N2CCC(C(C)N/N=C/c3c4c(O)c5c(O)c(C)c6c(c5c3O)C(=O)[C@@](C)(O/C=C/[C@H](OC)[C@@H](C)[C@@H](OC(C)=O)[C@H](C)[C@H](O)[C@H](C)[C@@H](O)[C@@H](C)/C=C/C=C(/C)C(=O)N4)O6)C2)c(F)cc2c(=O)c(C(=O)O)cn(C3CC3)c12` (stereo partly drawn) [Example 42, 3-({1-[1-(3-Carboxy-1-cyclopropyl-6-fluoro-8-methoxy-4-oxo-1,4-dihydro-quinolin-7-yl)-pyrrolidin-3-yl]-ethyl}-hydrazinomethylenyl)-rifamycin SV], the MIC in test [1] lay in the range of 0.008 to 1 mg/L (≈ 0.00719 to 0.899 µM); in test [2] it was 0.06 to 16 mg/L (≈ 0.0539 to 14.4 µM); in test [3] it was 0.008 to 0.125 mg/L (≈ 0.00719 to 0.112 µM); in test [4] it was 0.008 to 0.1 mg/L (≈ 0.00719 to 0.0899 µM); in test [5], 0.008 to 0.06 mg/L (≈ 0.00719 to 0.0539 µM); in test [6], 0.008 to 0.03 mg/L (≈ 0.00719 to 0.027 µM). The MIC in test [7] was in the range of 0.125 to 4 mg/L (≈ 0.112 to 3.6 µM).

`COc1c(N2CCC(N/N=C/c3c4c(O)c5c(O)c(C)c6c(c5c3O)C(=O)[C@@](C)(O/C=C/[C@H](OC)[C@@H](C)[C@@H](OC(C)=O)[C@H](C)[C@H](O)[C@H](C)[C@@H](O)[C@@H](C)/C=C/C=C(/C)C(=O)N4)O6)C2)c(F)cc2c(=O)c(C(=O)O)cn(C3CC3)c12` (mixture of isomers) [Example 21, (R/S)-3-[1-(3-Carboxy-1-cyclopropyl-6-fluoro-8-methoxy-4-oxo-1,4-dihydroquinolin-7-yl)-pyrrolidinyl-3-hydrazino-methylenyl]-rifamycin SV]: the MIC in test [1] was 0.008 to 1 mg/L (≈ 0.00738 to 0.922 µM); in test [2], 0.06 to 16 mg/L (≈ 0.0553 to 14.8 µM); in test [3], 0.008 to 0.125 mg/L (≈ 0.00738 to 0.115 µM); in test [4], 0.008 to 0.1 mg/L (≈ 0.00738 to 0.0922 µM); in test [5], 0.008 to 0.06 mg/L (≈ 0.00738 to 0.0553 µM); in test [6], 0.008 to 0.03 mg/L (≈ 0.00738 to 0.0277 µM). Also, the MIC in test [7] lay within 0.125 to 4 mg/L (≈ 0.115 to 3.69 µM).

With `COc1c(N2CCC(N3CCN(/N=C/c4c5c(O)c6c(O)c(C)c7c(c6c4O)C(=O)[C@@](C)(O/C=C/[C@H](OC)[C@@H](C)[C@@H](OC(C)=O)[C@H](C)[C@H](O)[C@H](C)[C@@H](O)[C@@H](C)/C=C/C=C(/C)C(=O)N5)O7)CC3)C2)c(F)cc2c(=O)c(C(=O)O)cn(C3CC3)c12` (mixture of isomers) [Example 33, (R/S)-3-{4-[1-(3-Carboxy-1-cyclopropyl-6-fluoro-8-methoxyoxo-1,4-dihydroquinolin-7-yl)-pyrrolidin-3-yl]-piperazin-1-yl-aminomethylenyl}-rifamycin SV], the MIC in test [1] lay in the range of 0.008 to 1 mg/L (≈ 0.00694 to 0.867 µM); in test [2], 0.06 to 16 mg/L (≈ 0.052 to 13.9 µM); in test [3], 0.008 to 0.125 mg/L (≈ 0.00694 to 0.108 µM); in test [4], 0.008 to 0.1 mg/L (≈ 0.00694 to 0.0867 µM); in test [5], 0.008 to 0.06 mg/L (≈ 0.00694 to 0.052 µM); in test [6] it was 0.008 to 0.03 mg/L (≈ 0.00694 to 0.026 µM). The MIC in test [7] was 0.125 to 4 mg/L (≈ 0.108 to 3.47 µM).

As for `CCn1cc(C(=O)O)c(=O)c2cc(F)c(N3CCN(/N=C/c4c5c(O)c6c(O)c(C)c7c(c6c4O)C(=O)[C@@](C)(O/C=C/[C@H](OC)[C@@H](C)[C@@H](OC(C)=O)[C@H](C)[C@H](O)[C@H](C)[C@@H](O)[C@@H](C)/C=C/C=C(/C)C(=O)N5)O7)CC3)nc21` [Example 19, 3-[4-(3-Carboxy-1-ethyl-6-fluoro-4-oxo-1,4-dihydro-[1,8]naphthyridine-7-yl)-piperazin-1-yl-aminomethylenyl]-rifamycin SV], the MIC in test [1] lay within 0.008 to 1 mg/L (≈ 0.00767 to 0.959 µM); in test [2], 0.06 to 16 mg/L (≈ 0.0575 to 15.3 µM); in test [3] it was 0.008 to 0.125 mg/L (≈ 0.00767 to 0.12 µM); in test [4] it was 0.008 to 0.1 mg/L (≈ 0.00767 to 0.0959 µM); in test [5] it was 0.008 to 0.06 mg/L (≈ 0.00767 to 0.0575 µM); in test [6], 0.008 to 0.03 mg/L (≈ 0.00767 to 0.0288 µM). Moreover, the MIC in test [7] is 0.125 to 4 mg/L (≈ 0.12 to 3.83 µM).
